From PubChem BioAssay AID328 (DTP/NCI, 2004)
Toxic doses and inconclusive results are not listed.

Test system: BDF1 mice, P388 leukemia ip, median survival T/C
Assay: NCI In Vivo Anticancer Drug Screen. Data for tumor model P388 Leukemia (intraperitoneal) in B6D2F1 (BDF1) mice
Details: endpoint: median survival time, higher = longer survival
Method in brief: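 In tumour-bearing mice, survival after compound treatment is set against the vehicle group and given as a quotient.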

[1] = dose: 100.0 mg/kg/injection, schedule: Q01DX009 (ip), vehicle: saline
[2] = dose: 25.0 mg/kg/injection, schedule: Q01DX009 (ip), vehicle: Klucel (hydroxypropylcellulose) (HPC)
[3] = dose: 100.0 mg/kg/injection, schedule: Q01DX009 (ip), vehicle: Klucel (hydroxypropylcellulose) (HPC)
[4] = dose: 200.0 mg/kg/injection, schedule: Q01DX009 (ip), vehicle: Klucel (hydroxypropylcellulose) (HPC)
[5] = dose: 400.0 mg/kg/injection, schedule: Q01DX009 (ip), vehicle: Klucel (hydroxypropylcellulose) (HPC)
[6] = dose: 12.5 mg/kg/injection, schedule: Q01DX009 (ip), vehicle: saline with Tween-80
[7] = dose: 25.0 mg/kg/injection, schedule: Q01DX009 (ip), vehicle: saline with Tween-80
[8] = dose: 50.0 mg/kg/injection, schedule: Q01DX009 (ip), vehicle: Klucel (hydroxypropylcellulose) (HPC)

Cc1ccc(S(=O)(=O)[O][Pb]([CH3])([CH3])[CH3])cc1
T/C (dose: 1.5 mg/kg/injection, schedule: Q01DX009 (ip), vehicle: saline): 103 % of control

COC(=O)[C@H]1[C@H]2C[C@@H]3c4[nH]c5cc(OC)ccc5c4CCN3C[C@H]2C[C@@H](OC(=O)c2cc(OC)c(OC)c(OC)c2)[C@@H]1OC
T/C (dose: 0.37 mg/kg/injection, schedule: Q01DX009 (ip), vehicle: saline with Tween-80): 95 % of control

COC(=O)C1C2(C)CCc3cc(OC)ccc3C2=CC(=O)C1(C)C(=O)OC (configuration not stated)
T/C (dose: 50.0 mg/kg/injection, schedule: Q04DX003 (sc), vehicle: steriod suspending solution): 100 % of control
T/C (dose: 100.0 mg/kg/injection, schedule: Q04DX003 (sc), vehicle: steriod suspending solution): 90 % of control

Cn1cc(S(C)=O)c(=O)c2ccccc21 (configuration not stated)
T/C (dose: 50.0 mg/kg/injection, schedule: Q01DX009 (ip), vehicle: saline): 99 % of control
T/C [1]: 99 % of control
T/C (dose: 200.0 mg/kg/injection, schedule: Q01DX009 (ip), vehicle: saline): 111 % of control

O=C(NN(Cn1c(=S)sc2ccccc21)Cn1c(=S)sc2ccccc21)c1ccncc1
T/C (dose: 6.25 mg/kg/injection, schedule: Q01DX009 (ip), vehicle: Klucel (hydroxypropylcellulose) (HPC)): 102 % of control
T/C (dose: 12.5 mg/kg/injection, schedule: Q01DX009 (ip), vehicle: Klucel (hydroxypropylcellulose) (HPC)): 120 % of control
T/C [2]: 118 % of control

Cc1c(C)c(Cl)c(C)c(Cl)c1O
T/C [3]: 109 % of control
T/C (dose: 100.0 mg/kg/injection, schedule: Q04DX003 (ip), vehicle: Klucel (hydroxypropylcellulose) (HPC)): 100 % of control
T/C [4]: 100 % of control
T/C (dose: 200.0 mg/kg/injection, schedule: Q04DX003 (ip), vehicle: Klucel (hydroxypropylcellulose) (HPC)): 104 % of control
T/C [5]: 109 % of control
T/C (dose: 400.0 mg/kg/injection, schedule: Q04DX003 (ip), vehicle: Klucel (hydroxypropylcellulose) (HPC)): 100 % of control

CCOC1OCN(C)CC1(C)C (configuration not stated)
T/C [6]: 115 % of control
T/C [7]: 120 % of control
T/C (dose: 66.0 mg/kg/injection, schedule: Q01DX009 (ip), vehicle: saline): 115 % of control
T/C [1]: 119 % of control
T/C (dose: 150.0 mg/kg/injection, schedule: Q01DX009 (ip), vehicle: saline): 154 % of control

CC(C)C(NC(=O)CN)C(=O)OCCCCS(=O)(=O)c1ccc(CO)cc1 (configuration not stated)
T/C (dose: 50.0 mg/kg/injection, schedule: Q01DX005 (ip), vehicle: suspension in saline): 100 % of control
T/C (dose: 100.0 mg/kg/injection, schedule: Q01DX005 (ip), vehicle: suspension in saline): 100 % of control
T/C (dose: 200.0 mg/kg/injection, schedule: Q01DX005 (ip), vehicle: suspension in saline): 95 % of control

CCCCN(CCCC)CC(O)c1cc(Cl)cc2c1-c1ccc(Cl)cc1C2 (configuration not stated)
T/C (dose: 50.0 mg/kg/injection, schedule: Q01DX009 (ip), vehicle: saline with Tween-80): 105 % of control
T/C (dose: 100.0 mg/kg/injection, schedule: Q01DX009 (ip), vehicle: saline with Tween-80): 114 % of control
T/C (dose: 200.0 mg/kg/injection, schedule: Q01DX009 (ip), vehicle: saline with Tween-80): 98 % of control

COC(=O)c1cc(C)c(Br)c(OC)c1
T/C (dose: 12.0 mg/kg/injection, schedule: Q01DX009 (ip), vehicle: Klucel (hydroxypropylcellulose) (HPC)): 95 % of control
T/C [2]: 90 % of control
T/C [8]: 90 % of control

COc1ccc(Nc2cccc(Cl)c2)c(C(=O)O)c1
T/C (dose: 20.0 mg/kg/injection, schedule: Q01DX001 (ip), vehicle: Klucel (hydroxypropylcellulose) (HPC)): 122 % of control
T/C (dose: 40.0 mg/kg/injection, schedule: Q01DX001 (ip), vehicle: Klucel (hydroxypropylcellulose) (HPC)): 100 % of control
T/C (dose: 75.0 mg/kg/injection, schedule: Q01DX001 (ip), vehicle: Klucel (hydroxypropylcellulose) (HPC)): 104 % of control
T/C (dose: 150.0 mg/kg/injection, schedule: Q01DX001 (ip), vehicle: Klucel (hydroxypropylcellulose) (HPC)): 100 % of control

CCSc1ncc(Br)c(Sc2nc(N)nc3nc[nH]c23)n1
T/C (dose: 100.0 mg/kg/injection, schedule: Q04DX003 (ip), vehicle: saline with Tween-80): 86 % of control

CCN(CC)c1cc(Cl)c(C=O)cc1[N+](=O)[O-]
T/C [3]: 95 % of control
T/C [4]: 104 % of control
T/C [5]: 95 % of control

CSc1ccc(N=C=C(c2ccccc2)c2ccccc2)cc1
T/C (dose: 6.25 mg/kg/injection, schedule: Q01DX009 (ip), vehicle: saline with Tween-80): 95 % of control
T/C [6]: 90 % of control
T/C [7]: 90 % of control

CCCN(CCC)CCCOC(=O)c1ccc([N+](=O)[O-])cc1
T/C (dose: 50.0 mg/kg/injection, schedule: Q01DX001 (ip), vehicle: saline): 100 % of control
T/C (dose: 100.0 mg/kg/injection, schedule: Q01DX001 (ip), vehicle: saline): 100 % of control
T/C (dose: 200.0 mg/kg/injection, schedule: Q01DX001 (ip), vehicle: saline): 100 % of control

NC(CCCC(=O)O)P(=O)(O)O (configuration not stated)
T/C [8]: 112 % of control
T/C [3]: 110 % of control
T/C [4]: 113 % of control
